Residue numbers refer to the chain shown, from its start.
Key:
Assay in all cases: scanMAX kinase panel
Assay type in all cases: binding
Conditions in all cases: read-out: % Control; for remaining binding at 1 µM: 1000 nM
FLT3(N841I) = target: T1, FLT3(N841I) (Homo sapiens, UniProt P36888, N841I)
T1 construct: purchased DiscoverX scanMAX
T1 sequence (P36888 27-993 N841I): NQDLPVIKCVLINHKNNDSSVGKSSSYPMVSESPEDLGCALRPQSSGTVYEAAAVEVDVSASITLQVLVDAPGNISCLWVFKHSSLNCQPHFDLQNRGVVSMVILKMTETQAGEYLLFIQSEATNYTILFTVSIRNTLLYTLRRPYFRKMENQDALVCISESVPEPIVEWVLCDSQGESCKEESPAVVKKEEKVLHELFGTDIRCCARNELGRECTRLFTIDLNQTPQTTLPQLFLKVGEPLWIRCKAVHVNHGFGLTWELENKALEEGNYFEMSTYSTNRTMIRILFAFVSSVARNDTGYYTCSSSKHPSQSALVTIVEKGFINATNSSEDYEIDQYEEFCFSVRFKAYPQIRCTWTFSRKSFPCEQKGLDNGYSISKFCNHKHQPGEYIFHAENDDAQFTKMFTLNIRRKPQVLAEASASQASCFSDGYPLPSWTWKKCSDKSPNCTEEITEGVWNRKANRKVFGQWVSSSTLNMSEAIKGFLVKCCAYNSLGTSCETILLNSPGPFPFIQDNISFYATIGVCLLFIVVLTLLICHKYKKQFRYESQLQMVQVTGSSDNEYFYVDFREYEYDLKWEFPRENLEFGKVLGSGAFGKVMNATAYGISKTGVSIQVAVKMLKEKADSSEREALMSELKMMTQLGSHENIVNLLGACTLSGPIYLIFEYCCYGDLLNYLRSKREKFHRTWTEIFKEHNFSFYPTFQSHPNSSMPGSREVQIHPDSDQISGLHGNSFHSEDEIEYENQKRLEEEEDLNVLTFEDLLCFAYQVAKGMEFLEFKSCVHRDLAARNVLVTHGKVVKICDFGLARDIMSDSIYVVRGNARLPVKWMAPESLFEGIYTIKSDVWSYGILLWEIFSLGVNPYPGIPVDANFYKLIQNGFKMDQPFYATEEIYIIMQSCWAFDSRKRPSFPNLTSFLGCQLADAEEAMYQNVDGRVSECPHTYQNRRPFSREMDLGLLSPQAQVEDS
Text: (§1) Supplemental Table S2. scanMAXSM Kinome Assay Results. Complete tabulated data of all 468 kinases from the panel, including
(§2) 403 wild-type and 65 mutant isoforms. […] Cmpd 11 and Cmpd 24

HIPK4 = target: T2, HIPK4 (Homo sapiens, UniProt Q8NE63)
T2 construct: purchased DiscoverX scanMAX
T2 sequence (Q8NE63 1-616): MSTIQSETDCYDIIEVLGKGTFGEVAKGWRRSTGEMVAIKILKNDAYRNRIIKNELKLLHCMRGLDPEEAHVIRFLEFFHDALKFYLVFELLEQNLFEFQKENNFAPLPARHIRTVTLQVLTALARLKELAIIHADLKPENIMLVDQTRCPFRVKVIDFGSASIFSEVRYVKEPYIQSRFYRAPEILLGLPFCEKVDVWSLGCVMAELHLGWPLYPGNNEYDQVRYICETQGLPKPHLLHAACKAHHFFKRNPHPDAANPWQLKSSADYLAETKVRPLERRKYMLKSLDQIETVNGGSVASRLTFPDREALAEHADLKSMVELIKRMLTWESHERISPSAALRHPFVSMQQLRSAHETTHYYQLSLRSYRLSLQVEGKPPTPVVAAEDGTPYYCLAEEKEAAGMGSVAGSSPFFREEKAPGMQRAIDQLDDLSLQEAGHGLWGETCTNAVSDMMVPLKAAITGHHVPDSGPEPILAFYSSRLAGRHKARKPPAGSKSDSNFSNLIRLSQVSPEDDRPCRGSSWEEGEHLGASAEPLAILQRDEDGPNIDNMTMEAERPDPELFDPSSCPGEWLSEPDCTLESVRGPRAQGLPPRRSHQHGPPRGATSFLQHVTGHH
Text: as §1, §2

FLT3(D835Y) = target: T3, FLT3(D835Y) (Homo sapiens, UniProt P36888, D835Y)
T3 construct: purchased DiscoverX scanMAX
T3 sequence (P36888 27-993 D835Y): T1 sequence (P36888 27-993 N841I) with D809Y, I815N
Text: as §1, §2

SMILES	remaining binding at 1 µM (FLT3(N841I))	remaining binding at 1 µM (HIPK4)	remaining binding at 1 µM (FLT3(D835Y))	remaining binding at 0.1 µM (FLT3(N841I); 100 nM)	remaining binding at 0.1 µM (HIPK4; 100 nM)	remaining binding at 0.1 µM (FLT3(D835Y); 100 nM)
Cc1cc(NC(=O)[C@H](O)c2cccc(F)c2)ccc1-c1cn(C)c2ncnc(N)c12 [Compound 11, (R)-N-(4-(4-amino-7-methyl-7H-pyrrolo[2,3-d]pyrimidin-5-yl)-3-methylphenyl)-2-(3-fluorophenyl)-2-hydroxy acetamide]	0.3%	16%	80%	–	–	–
Cc1nc(N)c2c(-c3ccc(NC(=O)[C@H](O)c4cccc(F)c4)cc3C)cn(C)c2n1 [Compound 24]	100%	100%	96%	–	–	–
Cc1nc(N)c2c(-c3ccc(NC(=O)[C@H](O)c4cccc(C(F)(F)F)c4)cc3C)cn(C)c2n1 [Compound 26]	0%	3.8%	35%	34%	69%	88%
